The values that follow come from patent publication US7115666B2, “Nitrone compounds, pharmaceutical compositions containing the same and methods for treating inflammation and neuropathic pain” (Renovis, Inc., priority 2002, dated 2006).

Assay [1] concerns spinal nerve ligation model (Chung model). Put plainly: Spinal nerve ligation (Chung) model, mechanical allodynia. The class given is in vivo, rats. The conditions noted are these: 25 mg/kg single dosing via i.p.; von Frey filaments. As for the experimental part: Compound 14 and Compound 23 were prepared for i.p. administration as follows. 250 mg/ml of each of the compounds to be tested, was dissolved in a mixture of Cremophor EL/alcohol (90:10) (volume:volume), respectively, by brief sonication on ice, followed by further 10-fold dilution in saline solution (9% Cremophor EL; 1% ETOH and 90% saline) to give a final concentration of 25 mg/ml. before injection. 1 ml/kg (body weight) of compound solution was administered via i.p. to rats, to yield a dose of 25 mg/kg. 180–200 grams of body weight, male, Sprague-Dawley rats from Harlan were used. They were housed under the standard housing conditions and trained for 1 week before measurement of the baseline. The rats were prepared in the manner described in Example V, above, by i.p. admininstration of Taxol. The spinal nerve ligation surgery was performed as described by Kim & Chung (Kim, S. O., and Chung, J. M., An experimental model for peripheral neuropathy produced by segmental spinal nerve ligation in rat. Pain. 1992; 50:355–363.). The development of neuropathic pain was measured using 50% of threshold measurement using von Frey filaments. […] Generally speaking, the mechanical allodynia in spinal nerve ligation model rats fell in the range of 1–4 grams of the paw withdrawal threshold. The results of the tests are set forth in FIG. 8 and are summarized in the last two rows of Table III.

In assay [2] the test system is Taxol-induced neuropathic pain model in mice. Put plainly: Taxol-induced neuropathic pain model, mechanical allodynia (von Frey filament). Format: in vivo. An excerpt: Taxol is a chemotherapeutic reagent for treatment of cancer patients. Cancer patients under Taxol chemotherapy can develop neuropathic pain, with a symptom of severe mechanical allodynia, so that a light touch (non-noxious stimulus in a normal condition) becomes painful. […] Recent studies have shown that Taxol is involved in TNF-alpha release in microglia cells. As one of the clinically relevant models, Taxol-induced neuropathic pain was developed in mice and rats. It is believed that small-diameter high threshold nociceptive C-fibers in the peripheral sensory nervous systems are largely, if not exclusively, affected in the Taxol-induced neuropathic pain models.
In this series of experiments, five-week old, male C57B1/6 mice were purchased from Charles River and housed at the Renovis animal facility in South San Francisco. Mice were trained for one week in an enclosure made of Plexiglas with dimensions of 2 in×2.5 in×3.5 in (W, H, and L) with a meshed metal support. The baseline of response to mechanical stimulus was measured using a von Frey Filament (0.6 g=3.84 mN). Normally, the baseline response is between 0 to 40%.
Taxol was dissolved (1 mg/ml) in 50% Cremophor EL and 50% alcohol, and freshly diluted with saline to the final concentration of 0.2 mg/ml in 10% Cremophor EL, 10% alcohol. Mice were administered Taxol at 1 mg/kg of body weight, via i.p. daily, while the animals of the control group received vehicle (10% Cremophor EL and 10% alcohol in saline).
Animals receiving this daily dose of Taxol will develop neuropathic pain. The mechanical allodynia was measured at day 7, 8, or 14 after Taxol administration.
A quantity of 200 mg of compound 14 (Example 14) was dissolved in 0.4 ml of 100% DMSO to yield a concentration of 500 mg/ml, and was kept at 4° C. until use. Methylcellulose was dissolved in deionized-distilled water to yield a concentration of 1%. The freshly prepared meythlcellulose was used to make a suspension of the compound, 10 mg of compound in 2.5% DMSO (V/V) and 1% methylcellulose. The suspension was sonicated for 6 min with a 5 second interval every 30 seconds before administration to animals.
A quantity of 50 mg/kg (body weight) compound or vehicle (2.5% DMSO and 1% methylcellulose), 100 μl/20 g (body weight) was given to animals via gavage feeding procedure in a randomized, blinded fashion. The animals were then placed in the enclosure for assay. Mechanical allodynia was measured with von Frey filament (0.6 g=[…]) at various times after administration.
Referring to FIG. 5, baseline in the group of animals was measured as 25+/−4% (n=24, ±SEM) before induction of neuropathic pain with Taxol (or sham treatment), where the response was measured with a von Frey filament (0.6 g=3.84 mN) as the percent of trials a withdrawal response is observed after probing with the filament. The higher the percentage, the greater the inferred pain.
Sixteen animals were treated with Taxol daily to induce neuropathic pain. Mechanical allodynia was assayed at day 8; average withdrawal response was measured as 81±5% (n=16, ±SEM). Sixteen animals were treated with matching vehicle to create sham animals. The Taxol and sham animals were then separated randomly into two groups of 8 animals each for drug vs. vehicle testing. Withdrawal responses to a von Frey filament probe were measured at 1, 6, 24, and 72 hours post-administration of drug or vehicle control, and averaged for each animal. […] Negative values reflect a reduction in inferred pain.
For mouse neuropathic pain studies, C57B1/6 strain, five-weeks old male mice were obtained from Charles River, San Diego, Calif. A total of 120 mice were used for the studies. 4 mice per cage were housed under standard conditions with 12-hour light and 12-hour dark cycles (in Renovis, Inc, South San Francisco facility). For rat neuropathic pain studies, male Sprague-Dawley rats, with body weights ranging from 180–200 grams, were obtained from Harlan. A total of 42 rats were used for this study. […]

[3] abbreviates: Taxol/mice, P.O., Single dosing, 50 Mg/Kg body weight.

Entries after “also recorded” stand apart in the source; their conditions may differ.

With `COc1ccc(CCCC=[N+]([O-])C(C)(C)C)cc1` [Compound 23], in assay [1], the “effect on mechanical allodynia (paw withdrawal threshold)” value was “significant analgesic effects over control; also recorded: attenuate mechanical allodynia”.

For “N-tert-butyl-C-(4-phenylpropyl)nitrone [Compound 14]”, in assay [2] (50 mg/kg single dose via oral gavage), the “time postdosing of analgesic effect” value is given as “up to 24 hour”. In addition, the “effect on mechanical allodynia (Taxol-induced pain)” value in assay [2] (50 mg/kg single dose via oral gavage, von Frey filament 0.6 g, measured 1, 6, 24, up to 48 or 72 hours postdosing) was “inhibits mechanical allodynia; also recorded: significant reduction of mechanical allodynia; also recorded: activity preventing Taxol-induced pain”. In addition, in assay [2] (setting [3]), the “Effective time Hour post dosing” value was roughly 24 h and the “extent of block of mechanical allodynia” value was “block”. Further, the “effect on mechanical allodynia (paw withdrawal threshold)” value in assay [1] was “significant analgesic effects over control; also recorded: attenuate mechanical allodynia”.
